Source: US20230346775A1, “CANCER TREATMENT WITH TLR AGONIST” (BIRDIE BIOPHARMACEUTICALS, INC., priority 2020, published 2023)

What was measured:
Format in all cases: in vivo, human
[1] = Clinical benefit (RECIST 1.1) versus AUC/Cmax, Compound A in combination with pembrolizumab; settings: human, combination with anti-PD-1 mAb (pembrolizumab)
Text: (§1) Clinical benefit was defined as radiographic complete response, partial response or stable disease >18 weeks based on Response Evaluation Criteria in Solid Tumors (RECIST) version 1.1.

[2] = test system: advanced solid cancers; test: as above; settings: combination with pembrolizumab
Text: as §1

[3] = Clinical benefit (RECIST 1.1) versus AUC/Cmax, Compound A in combination with atezolizumab; settings: human, plasma, combination with anti-PD-L1 mAb (atezolizumab)
Text: as §1

[4] = test system: advanced solid cancers; test: as above; settings: combination with atezolizumab
Text: as §1

[5] = test system: unresectable or metastatic solid tumors; test: Efficacy of Compound A salt monotherapy, best response by irRECIST; settings: for patients with clinical benefit (irPR or irSD>18 weeks): 16 patients
Protocol: (§2) A treatment cycle is 21 days with 3 weekly infusions on days 1, 8, and 15.
Response was defined by best overall response—immune-related partial response (irPR), immune-related stable disease (irSD) with study duration over or under 18 weeks, and unconfirmed immune-related progressive disease (uirPD). Clinical benefit was defined as either partial response (irPR) or irSD >18 weeks. IP-10 cytokine induction levels of 32 patients evaluable for efficacy, were analyzed with respect to dosage in Cycle 1.

[6] = Phase 1 safety, drug-related adverse events, Compound A monotherapy
Text: Toxicities and adverse events are sometimes graded according to a 5-point scale. A grade 1 or mild toxicity is asymptomatic or induces only mild symptoms; may be characterized by clinical or diagnostic observations only; and intervention is not indicated. A grade 2 or moderate toxicity may impair activities of daily living (such as preparing meals, shopping, managing money, using the telephone, etc.) but only minimal, local, or non-invasive interventions are indicated. Grade 3 toxicities are medically significant but not immediately life-threatening; hospitalization or prolongation of hospitalization is indicated; activities of daily living related to self-care (such as bathing, dressing and undressing, feeding oneself, using the toilet, taking medications, and not being bedridden) may be impaired. Grade 4 toxicities are life-threatening and urgent intervention is indicated. Grade 5 toxicity produces an adverse event-related death.
as §2
Most common drug-related AE's were associated with immune activation.

[7] = test system: IP-10; test: Plasma IP-10 induction from baseline (MSD cytokine assay); settings: for mean IP-10 induction level from baseline: 16 patients, Cycle 1
Protocol: (§3) Pharmacodynamic analysis of Compound A included cytokine quantification and whole-blood RNA transcriptional profiling. Collected plasma samples were quantified for cytokine biomarkers implicated in inflammatory responses, immune system regulation, and other biological processes. Assays for cytokine quantification were performed by Frontage Laboratories, Inc. utilizing Meso Scale Discovery (MSD) V-PLEX and U-PLEX plates pre-coated with capture antibodies for IL-5, IL-17A, IFN-γ, IL-2, IL-6, IL-8, IL-10, IL-12p70, TNF-α, IFN-α, IFN-β, and IP-10. Plasma samples were added directly to the plate to allow the analytes in the samples to bind to the capture antibodies. Electrochemiluminiscent label (MSD SOLFO-TAG™)-conjugated detection antibodies were then added to visualize the plates by a MSD plate reader. The luminescence intensity was measured to quantify the amount of captured analytes (or cytokine levels) in each sample. […] Plasma samples were collected at Cycle 1, Cycle 3, and Cycle 6. Of the cytokines quantified, IP-10, IFN-γ, IL-6, IL-8, IL-10, and TNF-α had detectable levels. […] The greater peak cytokine level from either Cycle 1 Days 1 or 8 were selected for the analysis to be inclusive of all subjects. […] Response was defined by best overall response—immune-related partial response (irPR), immune-related stable disease (irSD) with study duration over or under 18 weeks, and unconfirmed immune-related progressive disease (uirPD). Clinical benefit was defined as either partial response (irPR) or irSD >18 weeks. […] For example, patient A dosed with dose level 2 with slower metabolism may have higher AUC and/or Cmax than patient B who was dosed with dose level 3, as a result patient A may produce higher level of IP-10 induction from baseline.

[8] = as above; settings: human, plasma, intravenous; read-out: minimum Cmax required to induce enough IP-10 that results in clinical benefit
Protocol: as §3

[9] = Phase 1 pharmacokinetics: Compound A free base in plasma after intravenous infusion
Text: as §2
The Mosteller Formula was used: BSA=√height (cm)×weight (kg)/3600.

[10] = Clinical benefit (RECIST 1.1) versus AUC/Cmax, Compound A monotherapy; settings: human, plasma, intravenous, Cmax of Compound A free base associated with greater likelihood of clinical benefit
Text: as §1

[11] = test system: advanced solid cancers; test: as above
Text: as §1

[12] = test system: IFN-γ; test: Plasma IFN-γ induction from baseline (MSD cytokine assay); settings: monotherapy, data not shown
Protocol: Pharmacodynamic analysis of Compound A included cytokine quantification and whole-blood RNA transcriptional profiling.
Collected plasma samples were quantified for cytokine biomarkers implicated in inflammatory responses, immune system regulation, and other biological processes. Assays for cytokine quantification were performed by Frontage Laboratories, Inc. utilizing Meso Scale Discovery (MSD) V-PLEX and U-PLEX plates pre-coated with capture antibodies for IL-5, IL-17A, IFN-γ, IL-2, IL-6, IL-8, IL-10, IL-12p70, TNF-α, IFN-α, IFN-β, and IP-10. Plasma samples were added directly to the plate to allow the analytes in the samples to bind to the capture antibodies. Electrochemiluminiscent label (MSD SOLFO-TAG™)-conjugated detection antibodies were then added to visualize the plates by a MSD plate reader. The luminescence intensity was measured to quantify the amount of captured analytes (or cytokine levels) in each sample.
Plasma samples were collected at Cycle 1, Cycle 3, and Cycle 6. Of the cytokines quantified, IP-10, IFN-γ, IL-6, IL-8, IL-10, and TNF-α had detectable levels. […] The greater peak cytokine level from either Cycle 1 Days 1 or 8 were selected for the analysis to be inclusive of all subjects.

[13] = IP-10 induction, >5-fold increase (n = 17)
[14] = No IP-10 induction, <5-fold increase (n = 19)

- Cmax ([1]; in vivo, intravenous): ≥ 7.65 ng/mL
- Cmax ([1]; plasma): 7.6 ng/mL
- Cmax ([3]; intravenous): ≥ 10.5 ng/mL
- Cmax [3]: 10.5 ng/mL
- Cmax [8]: ≥ 9.4 ng/mL
- Compound A free base exposure versus dose ([9]; five escalating dosages 0.30-0.90 mg/m^2 intravenously): dose-dependent increase
- half-life ([9]; human, plasma, iv): ~4 h
- Cmax [10]: ≥ 8.38 ng/mL
Structure (SMILES): CCOCc1nc2c(N)nc3ccccc3c2n1CC(C)(C)O [Compound A, 1-[4-amino-2-(ethoxymethyl)imidazo[4,5-c]quinolin-1-yl]-2-methylpropan-2-ol]
- patients with clinical benefit ([2]; high AUC group (above 2.19 ng/mL*Day), 15 patients): 47%
- patients with clinical benefit ([2]; high Cmax group (above 7.65 ng/mL), 16 patients): 44%
- patients with clinical benefit ([2]; low AUC group (below 2.19 ng/mL*Day), 11 patients): 27%
- patients with clinical benefit ([2]; low Cmax group (below 7.65 ng/mL), 10 patients): 30%
- patients with clinical benefit ([4]; high AUC group (above 2.14 ng/mL*Day), 10 patients): 50%
- patients with clinical benefit ([4]; high Cmax group (above 10.5 ng/mL), 10 patients): 40%
- patients with clinical benefit ([4]; low AUC group (below 2.14 ng/mL*Day), 15 patients): 20%
- patients with clinical benefit ([4]; low Cmax group (below 10.5 ng/mL), 15 patients): 27%
- patients with clinical benefit (irPR or irSD>18 weeks) ([5]; high AUC group (above 2.09 ng/mL*Day)): 7 patients
- patients with clinical benefit (irPR or irSD>18 weeks) ([5]; high Cmax group (above 9.4 ng/mL)): 7 patients
- partial response [PR], number of subjects ([5]; irRECIST, best response): 2
- stable disease [SD], number of subjects ([5]; irRECIST, best response): 18
- disease control rate ([5]; irRECIST, partial response + stable disease): 63%
- patients with clinical benefit (irPR or irSD>18 weeks) ([5]; low AUC group (below 2.09 ng/mL*Day)): two
- patients with clinical benefit (irPR or irSD>18 weeks) ([5]; low Cmax group (below 9.4 ng/mL)): two
- progressive disease (PD) as best response ([5]; monotherapy): 38%
- progressive disease (PD) as best response, number ([5]; monotherapy): 12 subjects
- subjects with prolonged disease control (study duration >18 weeks) ([5]; monotherapy): 22%
- subjects with prolonged disease control (study duration >18 weeks), number ([5]; monotherapy): 7 subjects
- longest study duration ([5]; one subject on monotherapy): 68 weeks
- dose dependence of toxicity ([6]; 0.30-0.90 mg/m^2): no apparent dose-dependent increase in toxicity
- Grade 1 AE, subjects (%) [6, 13]: 4 (24%)
- Grade 2 AE, subjects (%) [6, 13]: 7 (41%)
- Grade 3 AE, subjects (%) [6, 13]: 2 (12%)
- No AE, subjects (%) [6, 13]: 4 (24%)
- Grade 1 AE, subjects (%) [6, 14]: 6 (32%)
- Grade 2 AE, subjects (%) [6, 14]: 5 (26%)
- Grade 3 AE, subjects (%) [6, 14]: 1 (5%)
- No AE, subjects (%) [6, 14]: 7 (37%)
- Grade 4 or 5 adverse events ([6]; monotherapy, 36 subjects): no Grade 4 or 5 adverse events
- overall tolerability ([6]; monotherapy, 36 subjects): well-tolerated
- subjects without any drug-related AE ([6]; monotherapy, of 36 subjects): 31%
- subjects without any drug-related AE, number ([6]; monotherapy, of 36 subjects): 11
- mean IP-10 induction level from baseline ([7]; high AUC group (AUC above 2.09 ng/mL*Day)): 27.2 fold
- mean IP-10 induction level from baseline ([7]; high Cmax group (Cmax above 9.4 ng/mL)): 31.9 fold
- mean IP-10 induction level from baseline ([7]; low AUC group (AUC below 2.09 ng/mL*Day)): 3.68 fold
- mean IP-10 induction level from baseline ([7]; low Cmax group (Cmax below 9.4 ng/mL)): 5.09 fold
- effect on blood IP-10 levels ([7]; monotherapy, FIG. 2A): significantly increased
- patients with clinical benefit ([11]; high AUC group (above 3.42 ng/mL*Day), 14 patients): 50%
- patients with clinical benefit ([11]; high Cmax group (above 8.38 ng/mL), 15 patients): 47%
- patients with clinical benefit ([11]; low AUC group (below 3.42 ng/mL*Day), 18 patients): 11%
- patients with clinical benefit ([11]; low Cmax group (below 8.38 ng/mL), 17 patients): 12%
- effect on blood IFN-γ levels [12]: significantly increased
